Experimental data reported in ChEMBL document CHEMBL3885881, “DrugMatrix”.

Species: Rattus norvegicus
Assay: DrugMatrix - Regimen: Daily Repeat
Type: toxicity, organism-based, Sprague-Dawley
Parameters: regimen Daily Repeat, gender Male, age 6-8 weeks
Settings: in vivo, ip, route intraperitoneal, vehicle 100 % SALINE; for URIC ACID / ALANINE AMINOTRANSFERASE / ALBUMIN / ALKALINE PHOSPHATASE / ASPARTATE AMINOTRANSFERASE / BLOOD UREA NITROGEN / CHLORIDE / CHOLESTEROL / CREATINE PHOSPHOKINASE / CREATININE / GLUCOSE / LACTATE DEHYDROGENASE / LIPASE / PHOSPHORUS / POTASSIUM / SODIUM / TOTAL BILIRUBIN / TOTAL PROTEIN: tissue Plasma
[1] = 5 mg/kg, 120 h, tissue Blood, dose level High, time 5 day
[2] = 5 mg/kg, 120 h, dose level High, time 5 day
[3] = 5 mg/kg, […], tissue Blood, dose level High, time 14 day
[4] = 5 mg/kg, […], tissue Blood, dose level High, time 28 day
[5] = 5 mg/kg, […], dose level High, time 14 day
[6] = 5 mg/kg, […], dose level High, time 28 day

## CARBOPLATIN
0 mg/kg, […], dose level Control, time 28 day
  URIC ACID: 1.26 mg/dL
[1]
  ABSOLUTE BASOPHIL: 26 cells/µL
  ABSOLUTE EOSINOPHIL: 44 cells/µL
  ABSOLUTE LYMPHOCYTE: 5500 cells/µL
  ABSOLUTE MONOCYTE: 120 cells/µL
  ABSOLUTE SEGMENTED NEUTROPHIL: 520 cells/µL
  BASOPHIL: 0.4%
  EOSINOPHIL: 0.72%
  ERYTHROCYTE COUNT: 7.51 x10E6/uL
  HEMATOCRIT: 46.82%
  LEUKOCYTE COUNT: 6.24 x10E3/uL
  LYMPHOCYTE: 88.18%
  MEAN CORPUSCULAR HEMOGLOBIN: 20.08 pg
  MEAN CORPUSCULAR HEMOGLOBIN CONCENTRATION: 32.18 G/DL
  MONOCYTE: 2.02%
  NEUTROPHIL: 8.22%
  PLATELET COUNT: 1572.2 x10E3/uL
[2]
  ALANINE AMINOTRANSFERASE: 21.4 u/L
  ALBUMIN: 3.62 G/DL
  ALKALINE PHOSPHATASE: 214.8 u/L
  ASPARTATE AMINOTRANSFERASE: 70.6 u/L
  BLOOD UREA NITROGEN: 14.6 mg/dL
  CHLORIDE: 107.4 MEQ/L
  CHOLESTEROL: 59.4 mg/dL
  CREATINE PHOSPHOKINASE: 192.6 u/L
  CREATININE: 0.54 mg/dL
  GLUCOSE: 139.6 mg/dL
  LACTATE DEHYDROGENASE: 65 u/L
  LIPASE: 27.2 u/L
  PHOSPHORUS: 11.28 mg/dL
  POTASSIUM: 5.36 MEQ/L
  SODIUM: 146.8 MEQ/L
  TOTAL BILIRUBIN: 0.18 mg/dL
  TOTAL PROTEIN: 6.16 G/DL
  URIC ACID: 1.16 mg/dL
[3]
  ABSOLUTE BASOPHIL: 130 cells/µL
  ABSOLUTE EOSINOPHIL: 88 cells/µL
  ABSOLUTE LYMPHOCYTE: 8780 cells/µL
  ABSOLUTE MONOCYTE: 260 cells/µL
  ABSOLUTE SEGMENTED NEUTROPHIL: 1370 cells/µL
  BASOPHIL: 1.28%
  EOSINOPHIL: 0.82%
  ERYTHROCYTE COUNT: 7.59 x10E6/uL
  HEMATOCRIT: 44.92%
  LEUKOCYTE COUNT: 10.68 x10E3/uL
  LYMPHOCYTE: 81.92%
  MEAN CORPUSCULAR HEMOGLOBIN: 19.52 pg
  MEAN CORPUSCULAR HEMOGLOBIN CONCENTRATION: 32.96 G/DL
  MONOCYTE: 2.38%
  NEUTROPHIL: 13.02%
  PLATELET COUNT: 1274 x10E3/uL
[4]
  ABSOLUTE BASOPHIL: 170 cells/µL
  ABSOLUTE EOSINOPHIL: 89 cells/µL
  ABSOLUTE LYMPHOCYTE: 9490 cells/µL
  ABSOLUTE MONOCYTE: 290 cells/µL
  ABSOLUTE SEGMENTED NEUTROPHIL: 1640 cells/µL
  BASOPHIL: 1.3%
  EOSINOPHIL: 0.78%
  ERYTHROCYTE COUNT: 8.56 x10E6/uL
  HEMATOCRIT: 50.05%
  LEUKOCYTE COUNT: 11.75 x10E3/uL
  LYMPHOCYTE: 81.13%
  MEAN CORPUSCULAR HEMOGLOBIN: 19.05 pg
  MEAN CORPUSCULAR HEMOGLOBIN CONCENTRATION: 32.58 G/DL
  MEAN CORPUSCULAR VOLUME: 58.46 fL
  MONOCYTE: 2.43%
  NEUTROPHIL: 13.81%
  PLATELET COUNT: 1331.9 x10E3/uL
[5]
  ALANINE AMINOTRANSFERASE: 30.2 u/L
  ALBUMIN: 3.48 G/DL
  ALKALINE PHOSPHATASE: 147.2 u/L
  ASPARTATE AMINOTRANSFERASE: 92.8 u/L
  BLOOD UREA NITROGEN: 12.2 mg/dL
  CHOLESTEROL: 54 mg/dL
  CREATINE PHOSPHOKINASE: 251.2 u/L
  CREATININE: 0.46 mg/dL
  GLUCOSE: 105.2 mg/dL
  LACTATE DEHYDROGENASE: 123.4 u/L
  LIPASE: 31.2 u/L
  PHOSPHORUS: 8.36 mg/dL
  POTASSIUM: 5.68 MEQ/L
  SODIUM: 149.4 MEQ/L
  TOTAL BILIRUBIN: 0.22 mg/dL
  TOTAL PROTEIN: 6.24 G/DL
  URIC ACID: 0.6 mg/dL
[6]
  ALANINE AMINOTRANSFERASE: 36.4 u/L
  ALBUMIN: 3.74 G/DL
  ALKALINE PHOSPHATASE: 135 u/L
  ASPARTATE AMINOTRANSFERASE: 95.6 u/L
  BLOOD UREA NITROGEN: 13.2 mg/dL
  CHLORIDE: 106.6 MEQ/L
  CHOLESTEROL: 55.8 mg/dL
  CREATINE PHOSPHOKINASE: 186.2 u/L
  CREATININE: 0.51 mg/dL
  GLUCOSE: 115.1 mg/dL
  LACTATE DEHYDROGENASE: 98.7 u/L
  LIPASE: 8.62 u/L
  PHOSPHORUS: 9.03 mg/dL
  POTASSIUM: 6.36 MEQ/L
  SODIUM: 150.9 MEQ/L
  TOTAL BILIRUBIN: 0.22 mg/dL
